Bounds are passed on as bounds.

The target in one experiment is Sphingosine 1-phosphate receptor 1 (Homo sapiens, UniProt P21453). Kind of experiment: potentiators of S1P1 agonist response, dose response, cell-based, potentiator mode, 60K MLSMR set (AID 466).
Sequence of Sphingosine 1-phosphate receptor 1 (P21453 whole entry): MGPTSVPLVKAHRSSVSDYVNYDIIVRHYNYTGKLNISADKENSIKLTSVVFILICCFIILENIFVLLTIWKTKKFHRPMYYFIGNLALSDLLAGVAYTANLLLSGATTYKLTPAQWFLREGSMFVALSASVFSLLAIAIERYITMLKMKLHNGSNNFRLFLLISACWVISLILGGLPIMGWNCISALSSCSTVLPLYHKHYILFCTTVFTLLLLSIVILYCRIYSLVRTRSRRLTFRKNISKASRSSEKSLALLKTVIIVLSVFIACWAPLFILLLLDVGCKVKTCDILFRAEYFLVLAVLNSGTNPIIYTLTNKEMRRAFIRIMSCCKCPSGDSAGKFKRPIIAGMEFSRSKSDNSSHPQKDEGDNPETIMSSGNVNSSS
Details: not given
The term EC50 denotes the midpoint of the concentration-response curve. For the molecule `c1ccc(N2CCN(c3ncnc4c3oc3ccccc34)CC2)cc1` [4-(4-phenyl-1-piperazinyl)benzofuro[3,2-d]pyrimidine], the EC50 was greater than 95 µM. For the molecule `Cc1oc2cc(O)cc(O)c2c(=O)c1-c1ccc2c(c1)OCCCO2` [3-(3,4-dihydro-2H-1,5-benzodioxepin-7-yl)-2-methyl-5,7-bis(oxidanyl)chromen-4-one], the EC50 amounted to 3.73 µM. In the case of `COc1ccc2c(c1)CCc1c(C(=O)Nc3ccc(OC)c(OC)c3)noc1-2` [MLS000087452], the EC50 is 2.83 µM. On the same count and under the same terms, to `COc1ccc(C(c2c(O)ccc3ccccc23)N2CCOCC2)c(OC)c1` (centres undefined) [1-[(2,4-dimethoxyphenyl)-(4-morpholinyl)methyl]-2-naphthalenol] belongs 3.83 µM. As for `Cc1ccccc1OCCCCc1c(C)n[nH]c1C` [SMR000103095], the concentration giving a half-maximal response (EC50) was determined as 6.51 µM. Same read-out and setting: to `COC(=O)c1c(C)n(-c2ccc(OC)cc2)c2ccc(O)cc12` [5-hydroxy-1-(4-methoxyphenyl)-2-methyl-3-indolecarboxylic acid methyl ester] belongs 6.86 µM. Same read-out and setting: to `Oc1ccc(-c2nnc(SCC3CCCCC3)o2)cc1` [4-(5-Cyclohexylmethylsulfanyl-[1,3,4]oxadiazol-2-yl)-phenol] belongs 0.437 µM; to `Cc1nnc(SCC(=O)N2CCC(c3noc4ccc(F)cc34)CC2)s1` [1-[4-(5-fluoranyl-1,2-benzoxazol-3-yl)piperidin-1-yl]-2-[(5-methyl-1,3,4-thiadiazol-2-yl)sulfanyl]ethanone], 8.2 µM. As for `Cn1nc(C(C)(C)C)cc1C(=O)NCc1ccc(N2CCCC2=O)cc1` [5-tert-Butyl-2-methyl-2H-pyrazole-3-carboxylic acid 4-(2-oxo-pyrrolidin-1-yl)-benzylamide], the EC50 came out at 4.46 µM.

For the molecule `CC1CCc2nc(NC(=O)CSc3nc4ccccc4o3)sc2C1` (centres undefined) [2-(1,3-benzoxazol-2-ylsulfanyl)-N-(6-methyl-4,5,6,7-tetrahydro-1,3-benzothiazol-2-yl)acetamide], the EC50 is greater than 30 µM. Still for that read-out and setting: to `O=C(CSc1nnc(-c2c[nH]c3ccccc23)o1)N1c2ccccc2CCc2ccccc21` belongs 7.48 µM; to `CCCCc1ccc(C2C(C#N)C(=N)SC(=N)C2C#N)s1` (centres undefined) [2,6-bis(azanyl)-4-(5-butylthiophen-2-yl)-4H-thiopyran-3,5-dicarbonitrile], 13.7 µM; to `Cc1cc(C(=O)CSc2nnc(-c3ccccc3)n2-c2ccccc2)c(C)n1-c1nnc[nH]1`, 6.13 µM. Same read-out and setting: to `COc1ccc(CN=O)cc1COc1ccc(NC(C)=O)cc1` [MLS000111933] belongs greater than 95 µM; to `COc1ccc(C(=O)C2C(=O)C(=O)N(CC3CCCO3)C2c2cccc(OC)c2)cc1` (centres undefined) [(4Z)-4-[hydroxy-(4-methoxyphenyl)methylene]-5-(3-methoxyphenyl)-1-(tetrahydrofurfuryl)pyrrolidine-2,3-quinone], greater than 95 µM. Turning to `COC(=O)c1sc(NC(=O)c2ccc(OC)cc2OC)nc1C` [2-[(2,4-dimethoxybenzoyl)amino]-4-methyl-thiazole-5-carboxylic acid methyl ester], the EC50 is 7.76 µM. Still for that read-out and setting: to `COc1ccc(-c2noc(-c3cc(C)cc(C)c3)n2)cc1OC` [3-(3,4-dimethoxyphenyl)-5-(3,5-dimethylphenyl)-1,2,4-oxadiazole] belongs 1.01 µM; to `COc1ccccc1Oc1ccc2c(c1)C(=O)N(c1cccc(O)c1)C2=O` [2-(3-hydroxyphenyl)-5-(2-methoxyphenoxy)isoindole-1,3-dione], 2.14 µM. Take `Cc1csc(NC(=O)C(Cc2ccccc2)n2cccc2)n1` (centres undefined) [MLS000119019]: the EC50 was determined as 2.28 µM. For `COC(=O)CS(=O)(=O)c1nnc([C@H](Cc2ccccc2)NC(=O)OC(C)(C)C)o1` [SMR000046685], the EC50 worked out at 8.44 µM. With `CCN(C(=O)c1ccc(C(C)(C)C)cc1)c1nnc(Cn2nnc3ccccc32)s1` [MLS000072751], the 50% effective concentration (EC50) was 1.82 µM. In the case of `CCCCOc1ccc(S(=O)(=O)Nc2cccnc2)cc1` [4-butoxy-N-(3-pyridinyl)benzenesulfonamide], the EC50 amounted to 8.55 µM.

`CCOC(=O)C1CCN(c2ncnc3c2oc2ccc(Cl)cc23)CC1` [1-(8-chloro-4-benzofuro[3,2-d]pyrimidinyl)-4-piperidinecarboxylic acid ethyl ester]: the EC50 was greater than 95 µM. Take `c1ccc(C(Cc2nc(-c3cccnc3)no2)c2ccccc2)cc1` [5-(2,2-diphenylethyl)-3-(3-pyridinyl)-1,2,4-oxadiazole]: the EC50 stood at 2.66 µM. Still for that read-out and setting: to `Cc1nc2ccccc2c2oc(C(=O)NCC3COc4ccccc4O3)cc12` (centres undefined) [MLS000118430] belongs 9.7 µM; to `CCOc1ccc(-c2nc(-c3ccccc3C)no2)cc1` [3-(o-tolyl)-5-p-phenetyl-1,2,4-oxadiazole], 1.52 µM; to `O=S(=O)(C/C(=C/CO)S(=O)(=O)c1ccccc1)c1ccccc1` [(Z)-3,4-bis(benzenesulfonyl)but-2-en-1-ol], 8.68 µM.

Take `Cn1c(C(=O)N2CCCc3ccccc32)cc2sccc21` [(3,4-Dihydro-2H-quinolin-1-yl)-(4-methyl-4H-thieno[3,2-b]pyrrol-5-yl)-methanone]: the EC50 worked out at 1.47 µM. Still for that read-out and setting: to `COc1ccc(-c2noc(-c3cccc(OC)c3OC)n2)cc1OC` [5-(2,3-dimethoxyphenyl)-3-(3,4-dimethoxyphenyl)-1,2,4-oxadiazole] belongs 1.02 µM; to `COC(=O)c1ccc(OCC(O)Cn2nnc3ccccc32)cc1` (centres undefined) [4-[3-(1-benzotriazolyl)-2-hydroxypropoxy]benzoic acid methyl ester], greater than 95 µM; to `CCOC(=O)c1oc2cc(O)c(CC)cc2c(=O)c1-c1ccc2c(c1)OCCO2` [3-(2,3-dihydro-1,4-benzodioxin-6-yl)-6-ethyl-7-hydroxy-4-keto-chromene-2-carboxylic acid ethyl ester], greater than 10 µM.

Turning to `COc1ccccc1OCc1nc(C#N)c(N2CC(C)CC(C)C2)o1` (centres undefined) [5-(3,5-dimethyl-1-piperidinyl)-2-[(2-methoxyphenoxy)methyl]-4-oxazolecarbonitrile], the EC50 was determined as 2.55 µM. Same read-out and setting: to `Cc1cc(NC(=O)c2oc3ccccc3c2C)ccc1-n1cnnn1` [3-Methyl-benzofuran-2-carboxylic acid (3-methyl-4-tetrazol-1-yl-phenyl)-amide] belongs 5.53 µM; to `CCN(CC)C(=O)C1CCN(S(=O)(=O)c2ccc3oc4ccccc4c3c2)CC1` [1-(2-dibenzofuranylsulfonyl)-N,N-diethyl-4-piperidinecarboxamide], greater than 30 µM; to `Cc1ccc(-n2ncc3c(N4CCCC(C)C4)ncnc32)c(C)c1` (centres undefined) [1-(2,4-dimethylphenyl)-4-(3-methylpiperidin-1-yl)-1H-pyrazolo[3,4-d]pyrimidine], 8.81 µM. Same read-out and setting: to `O=C(CSc1nnc(Cc2csc(Nc3cccc(Cl)c3)n2)o1)N1CCc2ccccc21` [2-[[5-[[2-(3-chloroanilino)-1,3-thiazol-4-yl]methyl]-1,3,4-oxadiazol-2-yl]sulfanyl]-1-(2,3-dihydroindol-1-yl)ethanone] belongs greater than 95 µM.

The experiment is the same for the next values; noted with them: inactive by the depositor's call.
On to `Cn1nc(CC(=O)Nc2ccc(N3CCN(C(=O)OC(C)(C)C)CC3)cc2)c2ccccc2c1=O` [4-[4-[[2-(3-methyl-4-oxo-1-phthalazinyl)-1-oxoethyl]amino]phenyl]-1-piperazinecarboxylic acid tert-butyl ester], for which the EC50 worked out at 14.4 µM. Still for that read-out and setting: to `Cc1noc(C)c1S(=O)(=O)N(CC(=O)Nc1ccc2c(c1)OCCO2)c1ccc(C(C)C)cc1` [MLS000117406] belongs 15.9 µM; to `Clc1ccc(-c2nc3nc4ccccc4nc3n2Cc2ccco2)cc1` [2-(4-chlorophenyl)-3-(2-furanylmethyl)imidazo[4,5-b]quinoxaline], 16.6 µM; to `COc1ccc(Cc2nc(-c3ccc(-n4cccc4)cc3)no2)cc1OC` [3-(4-pyrrol-1-ylphenyl)-5-veratryl-1,2,4-oxadiazole], 13.4 µM. Same read-out and setting: to `CC(=O)c1sc(NC(=O)C2(F)C(F)(F)C(F)(F)C(F)(F)C(F)(F)C2(F)F)nc1C` [MLS000040071] belongs 31.1 µM; to `CCCCCn1c(=O)c(C(=O)NCc2ccncc2)c(O)c2ccccc21` [1-amyl-2-hydroxy-4-keto-N-(4-pyridylmethyl)quinoline-3-carboxamide], 24.4 µM; to `O=C(Nc1nc(-c2nc3ccccc3s2)cs1)c1ccc(S(=O)(=O)N2CCOCC2)cc1` [MLS000087900], 15.5 µM. Same read-out and setting: to `CCCC(=O)Nc1ccc(-c2nc3cc(C)c(C)cc3o2)cc1` [MLS000089940] belongs 10.8 µM; to `CCCC(=O)c1ccc(N2CCN(C(=O)c3ccccc3Br)CC2)c(F)c1` [1-[4-[4-(2-bromobenzoyl)piperazin-1-yl]-3-fluorophenyl]butan-1-one], 12.1 µM. Regarding `CC(=O)Nc1ccc(S(=O)(=O)N2CCN(c3cccc(C)c3C)CC2)cc1` [MLS000115810], the EC50 turned out to be 16.7 µM. The same measure, in the same setting: to `CN(Cc1cccs1)c1ncnc2sccc12` [MLS000056228] belongs 14.2 µM; to `CCCCOc1ccc(S(=O)(=O)Nc2cc(OC)ccc2OC)cc1` [4-butoxy-N-(2,5-dimethoxyphenyl)benzenesulfonamide], 12.1 µM. `CCCOC(=O)c1ccc(OCC(O)Cn2c(C)nc3ccccc32)cc1` (centres undefined) [4-[2-hydroxy-3-(2-methyl-1-benzimidazolyl)propoxy]benzoic acid propyl ester]: the EC50 came to 10 µM. On the same count and under the same terms, to `COc1ccccc1-n1nnnc1SCc1cc2c(cc1Br)OCO2` [5-[(6-bromanyl-1,3-benzodioxol-5-yl)methylsulfanyl]-1-(2-methoxyphenyl)-1,2,3,4-tetrazole] belongs 36.2 µM; to `CS(=O)(=O)n1nc(OC(=O)c2cccc3ccccc23)cc1N` [(5-amino-1-methylsulfonylpyrazol-3-yl) naphthalene-1-carboxylate], 11.9 µM. Same read-out and setting: to `Cc1ccc(C(=O)c2cncc(Br)c2)cc1` [(5-bromanylpyridin-3-yl)-(4-methylphenyl)methanone] belongs 12.6 µM; to `Cc1ccc(C(=O)Nc2nc(COc3ccccc3)cs2)s1` [5-methyl-N-[4-(phenoxymethyl)-1,3-thiazol-2-yl]thiophene-2-carboxamide], 11.2 µM.

Regarding `COc1cccc(-c2cc(C(=O)Nc3ccccc3SC)no2)c1` [5-(3-methoxyphenyl)-N-(2-methylsulfanylphenyl)-1,2-oxazole-3-carboxamide], the EC50 was determined as 16 µM.
